Experimental findings from BindingDB's records for doi:10.1021/jm015552m (Universita' Degli Studi Di Siena, 2001) are described below.

In assay [1] the target is Glutamate receptor 1 (Rattus norvegicus) (UniProt P19490). Kind of assay: Binding affinity towards GluR1 receptor from rat brain.
Assay [2] shares this target. Kind of assay: The potency at recombinant rat AMPA-R was measured on GluR1 receptor expressed in Xenopus Laevis oocytes.

Sequence of Glutamate receptor 1 (Rattus norvegicus) (P19490 whole entry, looked up): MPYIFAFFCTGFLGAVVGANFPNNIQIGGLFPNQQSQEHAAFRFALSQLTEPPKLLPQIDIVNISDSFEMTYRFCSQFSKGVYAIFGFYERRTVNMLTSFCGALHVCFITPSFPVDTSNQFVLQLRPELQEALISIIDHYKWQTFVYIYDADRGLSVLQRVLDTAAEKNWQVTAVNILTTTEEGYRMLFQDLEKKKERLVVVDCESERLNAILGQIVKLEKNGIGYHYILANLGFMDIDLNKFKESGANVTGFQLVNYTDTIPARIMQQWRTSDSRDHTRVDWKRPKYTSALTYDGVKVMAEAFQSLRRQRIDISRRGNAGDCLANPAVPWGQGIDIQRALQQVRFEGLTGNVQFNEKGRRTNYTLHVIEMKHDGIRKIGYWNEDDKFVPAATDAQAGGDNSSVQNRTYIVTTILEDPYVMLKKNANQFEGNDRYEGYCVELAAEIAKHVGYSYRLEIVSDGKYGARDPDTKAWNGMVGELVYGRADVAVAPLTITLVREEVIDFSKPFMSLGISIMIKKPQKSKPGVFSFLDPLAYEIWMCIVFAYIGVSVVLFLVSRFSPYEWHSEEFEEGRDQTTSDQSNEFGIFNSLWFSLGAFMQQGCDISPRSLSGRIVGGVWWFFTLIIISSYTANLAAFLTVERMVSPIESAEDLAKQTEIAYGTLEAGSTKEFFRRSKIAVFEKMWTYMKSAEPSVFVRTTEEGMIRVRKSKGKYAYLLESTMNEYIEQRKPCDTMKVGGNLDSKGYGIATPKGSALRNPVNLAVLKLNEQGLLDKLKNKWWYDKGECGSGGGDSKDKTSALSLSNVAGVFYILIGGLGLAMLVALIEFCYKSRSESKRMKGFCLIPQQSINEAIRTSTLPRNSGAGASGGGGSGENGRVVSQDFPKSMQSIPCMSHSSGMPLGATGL

For `N[C@@H](Cn1c2c(c(=O)[nH]c1=O)CCC2)C(=O)O` [2-Amino-3-(2,4-dioxo-2,3,4,5,6,7-hexahydro-cyclopentapyrimidin-1-yl)-propionic acid], the Ki in assay [1] turned out to be 0.109 µM. Further, in assay [2], the concentration for a half-maximal effect (EC50) turned out to be 24.9 µM.

What is called Ki is a measure of affinity in units of concentration, obtained from inhibition or displacement. Higher therefore signals weaker binding. The term EC50 denotes the concentration at which the effect is half-maximal.
